Experimental data taken from PubChem BioAssay (NCI).
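Five concentrations, 48 hours, 96-well plates. Abbreviation: GI50, concentration required for 50% inhibition of growth. At the TGI there is no net growth.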

What was measured:
Test in all cases: NCI tumour cell line growth inhibition, 48 h
SW-620 colon = test system: SW-620 colon
OVCAR-8 ovarian = test system: OVCAR-8 ovarian
HOP-62 NSCLC = test system: HOP-62 NSCLC
NCI-H460 lung = test system: NCI-H460 lung
M14 melanoma = test system: M14 melanoma
HL-60(TB) leukemia = test system: HL-60(TB) leukemia
U251 CNS = test system: U251 CNS
MDA-MB-435 = test system: MDA-MB-435
SF-268 CNS = test system: SF-268 CNS
SF-295 CNS = test system: SF-295 CNS
EKVX NSCLC = test system: EKVX NSCLC
TK-10 renal = test system: TK-10 renal
T-47D breast = test system: T-47D breast
NCI-H522 lung = test system: NCI-H522 lung
OVCAR-5 ovarian = test system: OVCAR-5 ovarian
MCF7 breast = test system: MCF7 breast
HS 578T breast = test system: HS 578T breast
NCI/ADR-RES ovarian = test system: NCI/ADR-RES ovarian
SNB-75 CNS = test system: SNB-75 CNS
UACC-62 melanoma = test system: UACC-62 melanoma
HCT-116 colon = test system: HCT-116 colon
SK-MEL-5 melanoma = test system: SK-MEL-5 melanoma
SF-539 CNS = test system: SF-539 CNS
SN12C renal = test system: SN12C renal
OVCAR-3 ovarian = test system: OVCAR-3 ovarian
HT29 colon = test system: HT29 colon
OVCAR-4 ovarian = test system: OVCAR-4 ovarian
RXF 393 renal = test system: RXF 393 renal
SK-OV-3 ovarian = test system: SK-OV-3 ovarian
HCC-2998 colon = test system: HCC-2998 colon
RPMI-8226 leukemia = test system: RPMI-8226 leukemia
KM12 colon = test system: KM12 colon
SK-MEL-28 melanoma = test system: SK-MEL-28 melanoma
K-562 leukemia = test system: K-562 leukemia
MOLT-4 leukemia = test system: MOLT-4 leukemia
HCT-15 colon = test system: HCT-15 colon
UACC-257 melanoma = test system: UACC-257 melanoma
SK-MEL-2 melanoma = test system: SK-MEL-2 melanoma
ACHN renal = test system: ACHN renal
CCRF-CEM leukemia = test system: CCRF-CEM leukemia
SNB-19 CNS = test system: SNB-19 CNS
DU-145 prostate = test system: DU-145 prostate
HOP-92 NSCLC = test system: HOP-92 NSCLC
IGROV1 ovarian = test system: IGROV1 ovarian
LOX IMVI melanoma = test system: LOX IMVI melanoma
SR leukemia = test system: SR leukemia
COLO 205 colon = test system: COLO 205 colon
MDA-MB-231 breast = test system: MDA-MB-231 breast
A498 renal = test system: A498 renal
A549 NSCLC = test system: A549 NSCLC
CAKI-1 renal = test system: CAKI-1 renal
PC-3 prostate = test system: PC-3 prostate
786-0 renal = test system: 786-0 renal
NCI-H23 lung = test system: NCI-H23 lung
UO-31 renal = test system: UO-31 renal
NCI-H226 lung = test system: NCI-H226 lung
MALME-3M melanoma = test system: MALME-3M melanoma
BT-549 breast = test system: BT-549 breast

O=C(O[C@H]1CN[C@H](C#Cc2cc3ncnc(Nc4ccc5c(cnn5Cc5ccccc5)c4)c3s2)C1)N1CCOCC1
GI50 (SW-620 colon): 8.57 µM
TGI (SW-620 colon): > 25 µM
GI50 (OVCAR-8 ovarian): 6.4 µM
TGI (OVCAR-8 ovarian): > 25 µM
GI50 (HOP-62 NSCLC): 4.86 µM
TGI (HOP-62 NSCLC): > 25 µM
GI50 (NCI-H460 lung): 7.26 µM
TGI (NCI-H460 lung): > 25 µM
GI50 (M14 melanoma): 5.22 µM
TGI (M14 melanoma): > 25 µM
GI50 (HL-60(TB) leukemia): 6.74 µM
TGI (HL-60(TB) leukemia): > 20.4 µM
GI50 (U251 CNS): 6.03 µM
TGI (U251 CNS): > 25 µM
GI50 (MDA-MB-435): 6.08 µM
TGI (MDA-MB-435): > 25 µM
GI50 (SF-268 CNS): 4.43 µM
TGI (SF-268 CNS): 24.5 µM
GI50 (SF-295 CNS): 7.49 µM
TGI (SF-295 CNS): > 25 µM
GI50 (EKVX NSCLC): 234 nM
TGI (EKVX NSCLC): > 11.4 µM
GI50 (TK-10 renal): 131 nM
TGI (TK-10 renal): 1830 nM
GI50 (T-47D breast): 2890 nM
TGI (T-47D breast): > 25 µM
GI50 (NCI-H522 lung): 195 nM
TGI (NCI-H522 lung): 4.26 µM
GI50 (OVCAR-5 ovarian): 1640 nM
TGI (OVCAR-5 ovarian): > 25 µM
GI50 (MCF7 breast): 5.91 µM
TGI (MCF7 breast): > 25 µM
GI50 (HS 578T breast): 780 nM
TGI (HS 578T breast): > 17 µM
GI50 (NCI/ADR-RES ovarian): 9.55 µM
TGI (NCI/ADR-RES ovarian): > 25 µM
GI50 (SNB-75 CNS): 2010 nM
TGI (SNB-75 CNS): > 23 µM
GI50 (UACC-62 melanoma): 5.74 µM
TGI (UACC-62 melanoma): > 25 µM
GI50 (HCT-116 colon): 3.74 µM
TGI (HCT-116 colon): > 25 µM
GI50 (SK-MEL-5 melanoma): 6.18 µM
TGI (SK-MEL-5 melanoma): > 25 µM
GI50 (SF-539 CNS): 4.18 µM
TGI (SF-539 CNS): > 19.1 µM
GI50 (SN12C renal): 2460 nM
TGI (SN12C renal): > 25 µM
GI50 (OVCAR-3 ovarian): 3.1 µM
TGI (OVCAR-3 ovarian): 10.6 µM
GI50 (HT29 colon): 3.92 µM
TGI (HT29 colon): 11.5 µM
GI50 (OVCAR-4 ovarian): 5.3 µM
TGI (OVCAR-4 ovarian): > 25 µM
GI50 (RXF 393 renal): 1150 nM
TGI (RXF 393 renal): 11.5 µM
GI50 (SK-OV-3 ovarian): 18.2 nM
TGI (SK-OV-3 ovarian): > 12.7 µM
GI50 (HCC-2998 colon): 5 µM
TGI (HCC-2998 colon): > 25 µM
GI50 (RPMI-8226 leukemia): 5.38 µM
TGI (RPMI-8226 leukemia): 20.4 µM
GI50 (KM12 colon): 4.63 µM
TGI (KM12 colon): 10.5 µM
GI50 (SK-MEL-28 melanoma): 9.34 µM
TGI (SK-MEL-28 melanoma): > 25 µM
GI50 (K-562 leukemia): 6.99 µM
TGI (K-562 leukemia): > 25 µM
GI50 (MOLT-4 leukemia): 4.22 µM
TGI (MOLT-4 leukemia): > 23.6 µM
GI50 (HCT-15 colon): 2370 nM
TGI (HCT-15 colon): > 25 µM
GI50 (UACC-257 melanoma): 7.45 µM
TGI (UACC-257 melanoma): > 25 µM
GI50 (SK-MEL-2 melanoma): 4.31 µM
TGI (SK-MEL-2 melanoma): 19.3 µM
GI50 (ACHN renal): 586 nM
TGI (ACHN renal): > 25 µM
GI50 (CCRF-CEM leukemia): 3.15 µM
TGI (CCRF-CEM leukemia): > 25 µM
GI50 (SNB-19 CNS): 7.71 µM
TGI (SNB-19 CNS): > 25 µM
GI50 (DU-145 prostate): 2160 nM
TGI (DU-145 prostate): > 22.9 µM
GI50 (HOP-92 NSCLC): 1290 nM
TGI (HOP-92 NSCLC): > 25 µM
GI50 (IGROV1 ovarian): 805 nM
TGI (IGROV1 ovarian): > 18.7 µM
GI50 (LOX IMVI melanoma): 5.88 µM
TGI (LOX IMVI melanoma): > 25 µM
GI50 (SR leukemia): 7.53 µM
TGI (SR leukemia): > 25 µM
GI50 (COLO 205 colon): 3.78 µM
TGI (COLO 205 colon): 8.7 µM
GI50 (MDA-MB-231 breast): 1800 nM
TGI (MDA-MB-231 breast): > 25 µM
GI50 (A498 renal): 998 nM
TGI (A498 renal): 15.3 µM
GI50 (A549 NSCLC): 3.71 µM
TGI (A549 NSCLC): > 25 µM
GI50 (CAKI-1 renal): 602 nM
TGI (CAKI-1 renal): > 11.3 µM
GI50 (PC-3 prostate): 7.36 µM
TGI (PC-3 prostate): > 25 µM
GI50 (786-0 renal): 7.16 µM
TGI (786-0 renal): > 25 µM
GI50 (NCI-H23 lung): 11.3 µM
TGI (NCI-H23 lung): > 25 µM
GI50 (UO-31 renal): 536 nM
TGI (UO-31 renal): 13.3 µM
GI50 (NCI-H226 lung): 5.37 µM
TGI (NCI-H226 lung): > 25 µM
GI50 (MALME-3M melanoma): 4.79 µM
TGI (MALME-3M melanoma): 23.7 µM
GI50 (BT-549 breast): 3.35 µM
TGI (BT-549 breast): 9.29 µM
